In patent US6610540B1, “Low oxygen culturing of central nervous system progenitor cells” (California Institute of Technology, priority 1998, dated 2003):

Test system: E12 mesencephalic precursor cultures
Experiment: Dopaminergic / neuronal subtype differentiation of expanded mesencephalic precursor cultures (TH+ cell counts by immunohistochemistry)
Assay type: cell-based, rat
Conditions: under both oxygen conditions
From the text: Culture of CNS Stem Cells. Animals were housed and treated following NIH guidelines. Cells dissected from rat embryonic lateral ganglionic eminence (E14) or mesencephalon (E12) were mechanically dissociated, plated on plastic 24-well plates (Costar) or 12 mm glass cover slips (Carolina Biologicals) precoated with polyornithine/fibronectin, and grown in defined medium with bFGF (Studer et al., 1998; Johe et al., 1996). In general, bFGF was withdrawn from the medium after 4-6 days of culture. Clonal assays were carried out in plastic 48-well plates (Costar). In some studies, recombinant human (rh)EPO, rhVEGF165 or recombinant mouse (rm)FGF8b, or their neutralizing antibodies (all from R&D Systems) were added to cultures at the following concentrations: EPO 0.5 U/ml, EPO neutralizing antibody 10 μg/ml, FGF8 250 ng/ml, FGF8b neutralizing antibody 5 μg/ml, VEGF 50 ng/ml, VEGF neutralizing antibody 0.5 μg/ml. […]
Immunohistochemistry. […] Appropriate fluorescence-tagged (Jackson Immunoresearch) or biotinylated (Vector Laboratories) secondary antibodies followed by metal-enhanced DAB reaction (Pierce) were used for visualization.
Cell Counts and Statistical Procedures. Uniform random sampling procedures were used for cell counts and quantified using the fractionator technique (Gundersen, et al., 1988). […] Data are expressed as mean±SEM.

sonic hedgehog was tested, and the “effect on expanded mesencephalic precursors (dopaminergic neuron differentiation)” value was “no effect”.
